US9643964B2, “3-(2-aminopyrimidin-4-yl)-5-(3-hydroxypropynyl)-1H-pyrrolo[2,3-C]pyridine derivatives as NIK inhibitors for the treatment of cancer” (Janssen Pharmaceutica NV, priority 2013, dated 2017)
pEC50, pIC50: −log10 of the molar value.

Legend:
[1] = target: Recombinant Human NF-kappaB-Inducing Kinase (NIK/MAP3K14) (Homo sapiens, UniProt Q99558); assay: Biological Assay A2: inhibition of auto-phosphorylation of recombinant human NIK/MAP3K14 (AlphaScreen); type: biochemical; conditions: auto-phosphorylation; averaged over all measurements on all batches; read-out: αscreen IC50
Method: Inhibition of Auto-Phosphorylation of Recombinant Human NF-kappaB-Inducing Kinase (NIK/MAP3K14) Activity (AlphaScreen®)
NIK/MAP3K14 auto-phosphorylation activity was measured using the AlphaScreen® (αscreen) format (Perkin Elmer). All compounds tested were dissolved in dimethyl sulfoxide (DMSO) and further dilutions were made in assay buffer. Final DMSO concentration was 1% (v/v) in assays. Assay buffer was 50 mM Tris pH 7.5 containing 1 mM EGTA (ethylene glycol tetraacetic acid), 1 mM DTT (dithiothreitol), 0.1 mM Na3VO4, 5 mM MgCl2, 0.01% Tween 20. Assays were carried out in 384 well Alphaplates (Perkin Elmer). Incubations consisted of compound, 25 microM Adenosine-5′-triphosphate (ATP), and 0.2 nM NIK/MAP3K14. Incubations were initiated by addition of GST-tagged NIK/MAP3K14 enzyme, carried out for 1 h at 25° C. and terminated by addition of stop buffer containing anti-phospho-IKK Ser176/180 antibody. Protein A Acceptor and Glutathione-Donor beads were added before reading using an EnVision® Multilabel Plate Reader (Perkin Elmer). Signal obtained in the wells containing blank samples was subtracted from all other wells and IC50's were determined by fitting a sigmoidal curve to % inhibition of control versus Log10 compound concentration.

LP-1 cells = assay: Biological Assay C: antiproliferative activity on LP-1 cells (CellTiter-Glo); type: cell-based, human; conditions: Homo sapiens, LP-1, 72 h, 72 hr treatment; averaged values
Method: (§1) Determination of Antiproliferative Activity on LP-1, L-363 and JJN-3 Cells
(§2) All compounds tested were dissolved in DMSO and further dilutions were made in culture medium. Final DMSO concentration was 0.3% (v/v) in cell proliferation assays. Viability was assessed using CellTiter-Glo cell viability assay kit (Promega). The human LP-1, L-363 and JJN-3 cells (DSMZ) were cultured in RPMI 1640 medium supplemented with 2 mM L-glutamine, and 10% fetal calf serum (PAA). Cells were routinely kept as suspension cells at 37° C. in a humidified 5% CO2 atmosphere. Cells were passaged at a seeding density of 0.2×10^6/ml twice a week. Cells were seeded in black tissue culture treated 96-well plates (Perkin Elmer). Densities used for plating ranged from 2,000 to 6,000 cells per well in a total volume of 75 μl medium. After twenty four hours, drugs and/or solvents were added (25 μl) to a final volume of 100 μl. Following 72 hr of treatment plates were removed from the incubator and allowed to equilibrate to room temperature for approx 10 min. 100 μl CellTiter-Glo reagent was added to each well that was then covered (Perkin Elmer Topseal) and shaken on plate shaker for 10 min. Luminescence was measured on a HTS Topcount (Perkin Elmer). Within an experiment, the results for each treatment were the mean of 2 replicate wells. For initial screening purposes, compounds were tested using a 9 point dilution curve (serial 1:3 dilutions). For each experiment, controls (containing no drug) and a blank incubation (containing cells read at the time of compound addition) were run in parallel. The blank value was subtracted from all control and sample values. For each sample, the mean value for cell growth (in relative light units) was expressed as a percentage of the mean value for cell growth of the control.

JJN-3 cells = assay: Biological Assay C: antiproliferative activity on JJN-3 cells (CellTiter-Glo); type: cell-based, human; conditions: Homo sapiens, JJN-3, 72 h, 72 hr treatment; averaged values
Method: as §1, §2

L-363 cells = assay: Biological Assay C: antiproliferative activity on L-363 cells (CellTiter-Glo); type: cell-based, human; conditions: Homo sapiens, L-363, 72 h, 72 hr treatment; averaged values
Method: as §1, §2

Recombinant Human NF-kappaB-Inducing Kinase (NIK/MAP3K14), sequence (Q99558 whole entry): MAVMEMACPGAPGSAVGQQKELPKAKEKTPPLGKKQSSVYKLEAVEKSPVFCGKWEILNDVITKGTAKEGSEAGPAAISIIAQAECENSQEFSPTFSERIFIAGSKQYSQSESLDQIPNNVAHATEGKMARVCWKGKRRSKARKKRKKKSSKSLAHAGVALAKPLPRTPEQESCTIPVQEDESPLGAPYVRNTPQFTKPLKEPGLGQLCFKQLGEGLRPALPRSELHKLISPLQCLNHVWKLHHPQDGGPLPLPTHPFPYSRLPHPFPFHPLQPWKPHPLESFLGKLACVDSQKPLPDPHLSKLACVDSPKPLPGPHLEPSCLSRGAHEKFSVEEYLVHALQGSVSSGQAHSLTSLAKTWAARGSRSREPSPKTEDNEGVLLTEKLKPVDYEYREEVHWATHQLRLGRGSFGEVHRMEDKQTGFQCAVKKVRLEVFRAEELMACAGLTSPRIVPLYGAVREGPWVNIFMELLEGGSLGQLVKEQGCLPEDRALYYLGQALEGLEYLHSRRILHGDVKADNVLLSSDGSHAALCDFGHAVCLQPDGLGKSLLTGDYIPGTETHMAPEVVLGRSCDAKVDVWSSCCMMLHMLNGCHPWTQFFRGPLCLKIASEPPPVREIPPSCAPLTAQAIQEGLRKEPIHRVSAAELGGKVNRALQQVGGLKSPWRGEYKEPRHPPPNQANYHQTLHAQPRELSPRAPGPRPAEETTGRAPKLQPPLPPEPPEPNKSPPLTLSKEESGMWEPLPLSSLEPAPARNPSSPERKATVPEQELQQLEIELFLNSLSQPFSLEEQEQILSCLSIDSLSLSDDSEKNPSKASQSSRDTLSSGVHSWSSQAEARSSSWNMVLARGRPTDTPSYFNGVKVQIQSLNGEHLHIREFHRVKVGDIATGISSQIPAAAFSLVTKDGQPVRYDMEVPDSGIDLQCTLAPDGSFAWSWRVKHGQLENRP

| SMILES | pIC50 [1] | pEC50 (LP-1 cells) | pEC50 (JJN-3 cells) | pEC50 (L-363 cells) |
| --- | --- | --- | --- | --- |
| COC(C)(C)Cn1cc(-c2nc(N)ncc2F)c2cc(C#CC(C)(O)C3CC3)ncc21 (stereo not drawn) [Compound 101] | 7.42 | 6.66 | 6.80 | 6.80 |
| Cn1cc(Cn2cc(-c3nc(N)ncc3F)c3cc(C#CC(C)(O)C4CC4)ncc32)cn1 (stereo not drawn) [Compound 109] | 6.92 | 5.92 | 6.34 | 6.44 |
| CC(O)(C#Cc1cc2c(-c3nc(N)ncc3F)cn(C3CCN(CCC(F)(F)F)CC3)c2cn1)C1CC1 (stereo not drawn) [Compound 167] | 7.24 | 6.00 | 6.41 | 6.41 |
| COCCn1cc(-c2ccnc(N)n2)c2cc(C#CC(C)(O)C3CCNCC3)ncc21 (stereo not drawn) [Compound 115] | 5.31 | < 5.00 | < 5.00 | < 5.00 |
| CCN1CCC(n2cc(-c3nc(N)ncc3F)c3cc(C#CC(C)(C)O)ncc32)CC1 [Compound 85] | 7.48 | 6.72 | 7.36 | 7.82 |
| COCCOc1cnc(N)nc1-c1cn(C(C)C)c2cnc(C#CC(C)(O)C3CC3)cc12 (stereo not drawn) [Compound 168] | 7.44 | 7.03 | 7.57 | 7.64 |
| COCCCn1cc(-c2nc(N)ncc2F)c2cc(C#CC(C)(O)C3CC3)ncc21 (stereo not drawn) [Compound 88] | 7.82 | 6.66 | 6.89 | 6.96 |
| CC(O)(C#Cc1cc2c(-c3nc(N)ncc3F)cn(C3CCN(CC4CC4)CC3)c2cn1)C1CC1 (stereo not drawn) [Compound 165] | 7.34 | 6.34 | 6.66 | 6.70 |
| COCCCn1cc(-c2nc(N)ncc2F)c2cc(C#CC(C)(C)O)nc(Cl)c21 [Compound 92] | 7.33 | 7.07 | 7.27 | 7.49 |
| COCCCn1cc(-c2nc(N)ncc2F)c2cc(C#CC(C)(O)C3CC3)nc(C(F)F)c21 (stereo not drawn) [Compound 96] | 6.77 | < 5.00 | < 5.00 | 5.18 |
| CC(O)(C#Cc1cc2c(-c3nc(N)ncc3F)cn(C3CN(C4CC4)C3)c2cn1)C1CC1 (stereo not drawn) [Compound 104] | 7.28 | 6.33 | 6.59 | 6.74 |
| CC(C)N1CC(n2cc(-c3ccnc(N)n3)c3cc(C#CC(C)(C)O)ncc32)C1 [Compound 80] | 7.12 | 5.60 | 6.51 | 6.80 |
| COCCCn1cc(-c2nc(N)ncc2F)c2cc(C#CC3(O)CCCC3)nc(C3CC3)c21 [Compound 93] | 8.00 | 6.07 | 6.51 | 6.60 |
| COCCN1CCC(n2cc(-c3nc(N)ncc3F)c3cc(C#CC(C)(O)C4CC4)ncc32)CC1 (stereo not drawn) [Compound 108] | 6.85 | 6.19 | 6.57 | 6.55 |
| CC(O)(C#Cc1cc2c(-c3nc(N)ncc3F)cn(C3CCN(CCF)CC3)c2cn1)C1CC1 (stereo not drawn) [Compound 163] | 7.14 | 6.96 | 6.96 | 7.23 |
| CC(O)(C#Cc1cc2c(-c3ccnc(N)n3)cn(C3CCN(C4CC4)CC3)c2cn1)C1CC1 (stereo not drawn) [Compound 164] | 7.05 | 6.17 | 6.41 | 6.57 |
| CCN1CCC(n2cc(-c3ccnc(N)n3)c3cc(C#CC(C)(C)O)ncc32)CC1 [Compound 79] | 7.33 | 5.70 | 6.80 | 7.21 |
| CC(O)(C#Cc1cc2c(-c3nc(N)ncc3F)cn(C3CN(C4CC4)C3)c2cn1)CF (stereo not drawn) [Compound 161] | 7.40 | 6.47 | 6.82 | 6.96 |
| CCOCCN1CC(n2cc(-c3nc(N)ncc3F)c3cc(C#CC(C)(O)C4CC4)ncc32)C1 (stereo not drawn) [Compound 158] | 6.74 | 6.13 | 6.36 | 6.41 |
| CNc1ncc(F)c(-c2cn(CCCOC)c3cnc(C#CC4(O)CCCC4)cc23)n1 [Compound 89] | 6.89 | 5.12 | 5.43 | 5.38 |
| [2H]C([2H])([2H])C(O)(C#Cc1cc2c(-c3nc(N)ncc3F)cn(C3CN(C4CC4)C3)c2cn1)C([2H])([2H])[2H] [Compound 160] | 7.09 | 6.68 | 6.96 | 7.03 |
| CC(O)(C#Cc1cc2c(-c3nc(N)ncc3F)c[nH]c2cn1)C1CC1 (stereo not drawn) [Compound 132] | 8.19 | 6.39 | 7.11 | 7.52 |
| Cc1cnc(N)nc1-c1cn(CC2CCOCC2)c2cnc(C#CC(C)(C)O)cc12 [Compound 82] | 7.46 | 4.89 | 5.96 | 6.05 |
| CC(O)(C#Cc1cc2c(-c3nc(N)ncc3F)cn(C3CN(C4CCCC4)C3)c2cn1)C1CC1 (stereo not drawn) [Compound 142] | 6.68 | 6.39 | 6.82 | 6.72 |
| CCN1CCC(n2cc(-c3nc(N)ncc3F)c3cc(C#CC(C)(O)C4CC4)ncc32)C1 (stereo not drawn) [Compound 141] | 7.18 | 6.49 | 7.02 | 7.25 |
| COCCCn1cc(-c2ccnc(N)n2)c2cc(C#CC(C)(C)O)nc(C)c21 [Compound 84] | 7.17 | 6.60 | 7.17 | 7.66 |
| CC(O)(C#Cc1cc2c(-c3nc(N)ncc3F)cn(CCCN3CCOCC3)c2cn1)C1CC1 (stereo not drawn) [Compound 105] | 6.72 | 6.28 | 6.70 | 6.85 |
| [2H]C([2H])([2H])C(O)(C#Cc1cc2c(-c3nc(N)ncc3F)cn(C3COC3)c2cn1)C1([2H])C([2H])([2H])C1([2H])[2H] (stereo not drawn) [Compound 110] | 7.77 | 6.24 | 6.77 | 6.85 |
| CN1CC(n2cc(-c3nc(N)ncc3C(F)(F)F)c3cc(C#CC(C)(O)C4CC4)ncc32)C1 (stereo not drawn) [Compound 99] | 6.96 | 5.70 | 5.96 | 5.96 |
| COCCCn1cc(-c2cc(C)nc(N)n2)c2cc(C#CC(C)(C)O)ncc21 [Compound 81] | 7.00 | 4.55 | 5.24 | 5.23 |
